According to patent US8987193B2, “Nisin derivatives and the use thereof” (University College Cork—National University of Ireland, Cork, priority 2008, dated 2015):
Where two headings read alike, the source gives them in different places. Ends that are not written are not given here.

Experiments:
[1] = tested on: L. plantarum CBC6; test: Deferred antagonism assay; type: cell-based, Lactobacillus plantarum; design: key: + = Enhanced bioactivity relative to control; − = Bioactivity equal to or less than control; NA = no activity evident; settings: producing strain
Procedure, shortened: (§1)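 L. lactis NZ9800 strains expressing nisin A hinge variants were replicated or spotted on GM17 agar, grown overnight, then overlaid with 0.75% w/v agar seeded with indicator. Zone size is the clearing diameter minus 5 mm colony growth.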

[2] = tested on: L. monocytogenes CBC3; test: Deferred antagonism assay; type: cell-based, Listeria monocytogenes; design: key: + = Enhanced bioactivity relative to control; − = Bioactivity equal to or less than control; NA = no activity evident; settings: producing strain; L. mono CBC3
Procedure, shortened: as §1

[3] = tested on: L. monocytogenes CBC1; test: Deferred antagonism assay; type: cell-based, Listeria monocytogenes; design: key: + = Enhanced bioactivity relative to control; − = Bioactivity equal to or less than control; NA = no activity evident; settings: producing strain; L. mono CBC1
Procedure, shortened: as §1

[4] = tested on: L. monocytogenes CBC2; test: Deferred antagonism assay; type: cell-based, Listeria monocytogenes; design: key: + = Enhanced bioactivity relative to control; − = Bioactivity equal to or less than control; NA = no activity evident; settings: producing strain; L. mono CBC2
Procedure, shortened: as §1

[5] = tested on: Staph. aureus ST528 (MRSA); test: Deferred antagonism assay; type: cell-based; settings: producing strain, diameter of zone minus diameter of bacterial growth (5 mm), average of duplicates
Procedure, shortened: (§2)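 Producer strains replicated on GM17 agar, grown overnight, then overlaid with soft agar (0.75% w/v) seeded with indicator strain. Zone size = clearing diameter minus 5 mm growth diameter, relative to NZ9800 pCI372nisA control; mean of duplicates.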

[6] = tested on: Staph. aureus DPC5245; test: Deferred antagonism assay; type: cell-based; settings: producing strain; diameter of zone minus 5 mm; average of duplicates; St. aureus DPC5245
Procedure, shortened: as §2

[7] = tested on: Strep. agalactiae ATCC13813; test: Deferred antagonism assay; type: cell-based; settings: producing strain, diameter of zone minus 5 mm, average of duplicates
[8] = tested on: Staph. aureus DPC5245; test: Activity of concentrated peptide preparations; type: cell-based; settings: data not shown
From the text: (§3) The most common post-translational modifications of lantibiotics involve the dehydration of serine to dehydroalanine (Dha) and of threonine to dehydrobutyrine (Dhb). These dehydrated residues interact with cysteine to form intramolecular lanthionine and β-methyllanthionine bridges, respectively.

[9] = tested on: L. lactis HP; test: Activity of concentrated peptide preparations; type: cell-based; settings: data not shown
From the text: as §3

[10] = tested on: Strep. agalactiae ATCC13813; test: Activity of concentrated peptide preparations; type: cell-based; settings: data not shown
From the text: as §3

[11] = tested on: C. sporogenes CBC5; test: Deferred antagonism assay; type: cell-based, Clostridium sporogenes; design: key: + = Enhanced bioactivity relative to control; − = Bioactivity equal to or less than control; NA = no activity evident; settings: producing strain
[12] = tested on: L. lactis CBC8; test: Deferred antagonism assay; type: cell-based; design: key: + = Enhanced bioactivity relative to control; − = Bioactivity equal to or less than control; NA = no activity evident; settings: producing strain
Procedure, shortened: as §1

[13] = tested on: S. aureus CBC4; test: Deferred antagonism assay; type: cell-based; design: key: + = Enhanced bioactivity relative to control; − = Bioactivity equal to or less than control; NA = no activity evident; settings: producing strain
Procedure, shortened: as §1

[14] = tested on: L. lactis CBC7; test: Deferred antagonism assay; type: cell-based; design: key: + = Enhanced bioactivity relative to control; − = Bioactivity equal to or less than control; NA = no activity evident; settings: producing strain
Procedure, shortened: as §1

[15] = tested on: indicator strains; test: Deferred antagonism assays, various indicator strains (summary); type: cell-based; settings: for Strain(s) against which the derivative (producing strain) displays enhanced bioactivity: relative to nisin A-producing control, value = strains listed
Procedure, shortened: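 Producer strains were replicated on GM17 or GM17 x-gal agar, grown overnight, then overlaid with GM17, BHI, TS or MH soft agar (0.75% w/v) seeded with the indicator strain. Zone size was taken as the clearing diameter minus the diameter of bacterial growth (5 mm).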

[16] = tested on: Strep. agalactiae ATCC13813; test: Deferred antagonism assay; type: cell-based; settings: chromosomal replacement strains; Strep. agalactiae ATCC 13813
[17] = tested on: Listeria innocua FH2051; test: Co-cultivation assay in GM17; type: cell-based; settings: GM17, 30° C.
Protocol: The indicator used for this trial was Listeria innocua FH2051 or L. monocytogenes EGDe. GM17 was co-inoculated with Listeria and the nisin variant producer being tested. […] The culture preparations were incubated at 30° C. Listeria numbers were determined on the basis of viable counts. For this purpose a dilution series were prepared at specific time intervals and plated onto Listeria selective agar base (Oxford formulation) (Oxoid Ltd.).
Assessment of the ability of nisin-variant producing lactococci to inhibit the growth of Listeria in broth: The ability of Listeria to survive in the presence of nisin-producing L. lactis strains was examined using a co-cultivation approach. Initial trials employed Listeria innocua FH2051 as a target.

[18] = tested on: L. lactis HP; test: Deferred antagonism assay; type: cell-based, L. lactis spp cremoris; settings: producing strain
Protocol: Deferred antagonism assays were performed by replicating strains on GM17 or GM17 x-gal agar plates and allowing them to grow overnight before overlaying with either GM17/BHI/TS/MH agar (0.75% w/v agar) seeded with the appropriate indicator strain. Zone size was calculated as the diameter of the zone of clearing minus the diameter of bacterial growth (5 mm) For higher throughput screening of N20PXX, XM21VX, XXK22T and XXX banks deferred antagonism assays were performed by replicating strains using a 96 pin replicator (Boekel) or spotting 5 μl of a fresh overnight culture on GM17 agar plates and allowing them to grow overnight. […] Additional sets of indicators were employed to further assess/reassess the bioactivity of a number of strains. […] For well-diffusion assays molten agar was cooled to 48° C. and seeded with the appropriate indicator strain. The inoculated medium was rapidly transferred into sterile Petri plates in 50 ml volumes, allowed to solidify and dried. […] Bioactivity was expressed as arbitrary units/ml (AU/ml) and calculated as the reciprocal of the highest dilution that gave a definite zone multiplied by the conversion factor (i.e. 20 when 50 μl was used) (Ryan et al., 1996).
In all cases the bioactivity of each variant was assessed by the size of the zone of inhibition in a deferred antagonism assay against various indicator strains. […]

[19] = tested on: Strep. agalactiae ATCC13813; test: Specific activity of purified peptide, equimolar concentrations; type: cell-based
Protocol: (§4) Deferred antagonism assays were performed by replicating strains on GM17 or GM17 x-gal agar plates and allowing them to grow overnight before overlaying with either GM17/BHI/TS/MH agar (0.75% w/v agar) seeded with the appropriate indicator strain. Zone size was calculated as the diameter of the zone of clearing minus the diameter of bacterial growth (5 mm) For higher throughput screening of N20PXX, XM21VX, XXK22T and XXX banks deferred antagonism assays were performed by replicating strains using a 96 pin replicator (Boekel) or spotting 5 μl of a fresh overnight culture on GM17 agar plates and allowing them to grow overnight. […] For well-diffusion assays molten agar was cooled to 48° C. and seeded with the appropriate indicator strain. The inoculated medium was rapidly transferred into sterile Petri plates in 50 ml volumes, allowed to solidify and dried. Wells (4.6 mm in diameter) were then made in the seeded plates. […] Bioactivity was expressed as arbitrary units/ml (AU/ml) and calculated as the reciprocal of the highest dilution that gave a definite zone multiplied by the conversion factor (i.e. 20 when 50 μl was used) (Ryan et al., 1996).

[20] = tested on: Staph. aureus ST528; test: as above; type: cell-based
Protocol: as §4

[21] = tested on: Strep. pneumoniae; settings: cited from earlier work

| Substance | Bioactivity relative to control [1] | Bioactivity relative to control [2] | Bioactivity relative to control [3] | Bioactivity relative to control [4] | zone size relative to that of the NZ9800 pCI372nisA control [5] [%] | zone size relative to that of the NZ9800 pCI372nisA control [6] [%] | zone size relative to that of the NZ9800 pCI372nisA control [7] [%] | Bioactivity relative to control [11] | Bioactivity relative to control [12] | Bioactivity relative to control [13] | Bioactivity relative to control [14] | Strain(s) against which the derivative (producing strain) displays enhanced bioactivity [15] | further results |
| --- | --- | --- | --- | --- | --- | --- | --- | --- | --- | --- | --- | --- | --- |
| M21C: nisin A derivative, hinge substitution M21C (ITSISLCTPGCKTGALMGCNCKTATCHCSIHVSK; cysteine pairing not given here; also: lantibiotic nisin-A; UniProt P13068 24-57, looked up, variant M21C) | − | − | − | − | 0 | 0 | 0 | − | − | − | − |  | activity relative to the wild-type peptide [8]: undetectable; activity relative to the wild-type peptide [9]: drastically reduced; activity relative to the wild-type peptide [10]: undetectable |
| N20C: nisin A derivative, hinge substitution N20C (ITSISLCTPGCKTGALMGCCMKTATCHCSIHVSK; cysteine pairing not given here; also: lantibiotic nisin-A; UniProt P13068 24-57, looked up, variant N20C) |  |  |  |  | 0 | 0 | 0 |  |  |  |  |  | activity relative to the wild-type peptide [8]: undetectable; activity relative to the wild-type peptide [9]: drastically reduced; activity relative to the wild-type peptide [10]: undetectable |
| NisinA K22S (ITSISLCTPGCKTGALMGCNMSTATCHCSIHVSK; not fully specified; also: lantibiotic nisin: dehydrated residues and thioether rings not placed; UniProt P13068 24-57, looked up, variant K22S) [nisin A derivative, hinge substitution K22S] | − | − | − | + | 154 | 124 | 142 | − | + | − | − | Strep. agalactiae ATCC13813, Staph. aureus ST528 and Staph. aureus DPC5245 and L. monocytogenes CBC2 and CBC8 and L. lactis CBC8 and L. monocytogenes CBC2, L. lactis CBC8, S. aureus ST528 | bacteriocin production/bioactivity relative to L. lactis NZ9700 [16]: enhanced |
| NisinA N20P (ITSISLCTPGCKTGALMGCPMKTATCHCSIHVSK; not fully specified; also: lantibiotic nisin: dehydrated residues and thioether rings not placed; UniProt P13068 24-57, looked up, variant N20P) [nisin A derivative, hinge substitution N20P] | − | + | − | − | 125 | 123 | 22 | + | − | + | + | CBC4, L. monocytogenes CBC3, C. sporogenes CBC5 and L. lactis CBC7 | impact on growth of FH2051 [17]: reduced its numbers; bioactivity against L. lactis HP relative to control [18]: enhanced; reduction in specific activity relative to nisin A [19]: 75%; increased specific activity relative to nisin A [20]: 100%; bacteriocin production/bioactivity relative to L. lactis NZ9700 [16]: enhanced |
| NisinA N20R (ITSISLCTPGCKTGALMGCRMKTATCHCSIHVSK; not fully specified; also: lantibiotic nisin: dehydrated residues and thioether rings not placed; UniProt P13068 24-57, looked up, variant N20R) [nisin A derivative, hinge substitution N20R] | − | − | − | − | 0 | 53.5 | 19 | + | − | − | − | C. sporogenes CBC5 | bioactivity of the producing strain, in words ([15]; in general / against the strains tested): greatly reduced bioactivities |
| NisinA N20S (ITSISLCTPGCKTGALMGCSMKTATCHCSIHVSK; not fully specified; also: lantibiotic nisin: dehydrated residues and thioether rings not placed; UniProt P13068 24-57, looked up, variant N20S) [nisin A derivative, hinge substitution N20S] | − | − | − | + | 83.5 | 87.5 | 72 | + | − | + | − | L. monocytogenes CBC2, Staph. aureus CBC4 and C. sporogenes CBC5 and L. monocytogenes CBC2, S. aureus CBC4 and L. monocytogenes CBC2, S. aureus CBC4, C. sporogenes and CBC5 |  |
| nisin |  |  |  |  |  |  |  |  |  |  |  |  | minimum inhibitory concentration (MIC) ([21]; penicillin-susceptible strain before serial exposure to nisin): 0.4 µg/mL; minimum inhibitory concentration (MIC) ([21]; stable nisin-resistant mutants after serial exposure to nisin (1 mg/L)): 6.4 µg/mL |
